Test results reported in ChEMBL document CHEMBL1153013, “Bio-active compounds from Euphorbia cornigera Boiss” (2009).
≈ marks a conversion by molar mass, not a printed value.

The compounds below were run on Biomphalaria glabrata (assay: Molluscicidal activity against Biomphalaria glabrata after 24 hrs).
Assay type: functional
Compound `C/C=C(\C)C(=O)O[C@@H]1C(COC(=O)c2ccccc2NC(=O)c2ccccc2N)=C[C@@H]2C(=O)[C@]3(C=C(C)[C@H](OC(C)=O)[C@@]13O)[C@H](C)C[C@@H]1[C@H]2C1(C)C` has an LC50 of 0.0155 µg/mL (≈ 0.0218 µM).
`CC(=O)OCC1=C[C@@H]2C(=O)[C@]3(C=C(C)[C@H](OC(=O)c4ccccc4NC(=O)c4ccccc4N)[C@@]3(O)[C@@H]1O)[C@H](C)C[C@@H]1[C@H]2C1(C)C` showed an LC50 of 0.0143 µg/mL (≈ 0.0227 µM).
Compound `C/C=C(\C)C(=O)OCC1=C[C@@H]2C(=O)[C@]3(C=C(C)[C@H](OC(C)=O)[C@@]3(O)[C@@H]1OC(=O)c1ccccc1NC(=O)c1ccccc1N)[C@H](C)C[C@@H]1[C@H]2C1(C)C` has an LC50 of 0.0145 µg/mL (≈ 0.0204 µM).
`C/C=C(\C)C(=O)O[C@@H]1C(COC(C)=O)=C[C@@H]2C(=O)[C@]3(C=C(C)[C@H](OC(=O)c4ccccc4NC(=O)c4ccccc4N)[C@@]13O)[C@H](C)C[C@@H]1[C@H]2C1(C)C` gave an LC50 of 0.0135 µg/mL (≈ 0.019 µM).
For `C/C=C(\C)C(=O)O[C@H]1C(C)=C[C@]23C(=O)[C@@H](C=C(COC(C)=O)[C@@H](OC(=O)c4ccccc4NC(=O)c4ccccc4N)[C@]12O)[C@H]1[C@@H](C[C@H]3C)C1(C)C`, the LC50 was 0.0754 µg/mL (≈ 0.106 µM).
`CC(=O)OCC1=C[C@@H]2C(=O)[C@]3(C=C(C)[C@H](OC(=O)c4ccccc4NC(=O)c4ccccc4N)[C@@]3(O)[C@@H]1OC(C)=O)[C@H](C)C[C@@H]1[C@H]2C1(C)C` showed an LC50 of 0.0114 µg/mL (≈ 0.017 µM).
In the case of `CC(=O)O[C@H]1C(C)=C[C@]23C(=O)[C@@H](C=C(COC(=O)c4ccccc4NC(=O)c4ccccc4N)[C@@H](O)[C@]12O)[C@H]1[C@@H](C[C@H]3C)C1(C)C`, the LC50 is reported as 0.0192 µg/mL (≈ 0.0305 µM).
Work on `CC(=O)OCC1=C[C@@H]2C(=O)[C@]3(C=C(C)[C@H](OC(C)=O)[C@@]3(O)[C@@H]1OC(=O)c1ccccc1NC(=O)c1ccccc1N)[C@H](C)C[C@@H]1[C@H]2C1(C)C` yielded an LC50 of 0.0183 µg/mL (≈ 0.0273 µM).
Work on `C/C=C(\C)C(=O)OCC1=C[C@@H]2C(=O)[C@]3(C=C(C)[C@H](OC(=O)c4ccccc4NC(=O)c4ccccc4N)[C@@]3(O)[C@@H]1OC(C)=O)[C@H](C)C[C@@H]1[C@H]2C1(C)C` yielded an LC50 of 0.0125 µg/mL (≈ 0.0176 µM).
Work on `C/C=C(\C)C(=O)O[C@H]1C(C)=C[C@]23C(=O)[C@@H](C=C(COC(=O)c4ccccc4NC(=O)c4ccccc4N)[C@@H](OC(C)=O)[C@]12O)[C@H]1[C@@H](C[C@H]3C)C1(C)C` yielded an LC50 of 0.0615 µg/mL (≈ 0.0865 µM).
`O=C(Nc1ccc([N+](=O)[O-])cc1Cl)c1cc(Cl)ccc1O` [NICLOSAMIDE] gave an LC50 of 0.025 µg/mL (≈ 0.0764 µM).
